Measured values from US20070037883A1, “Therapeutic compositions” (priority 2003, published 2007).

Tests used:
Nox4 mRNA = Nox4 mRNA expression in cultured mouse VSMCs, real-time PCR; assay type: cell-based; details: 500 nmol/L oligonucleotide, 24 h, FIG. 9
Description: Mouse VSMCs were plated sparsely onto 96-well ViewPlates (Packard Bioscience) (for superoxide measurements) or onto 35 mm culture dishes (for RNA extraction) such that they were 30-50% confluent at the time of transfection 24 h later. At the time of transfection, cells were washed with serum- and antibiotic free DMEM and were then incubated in serum- and antibiotic-free DMEM containing 8 μL/mL Oligofectamine Transfection Reagent (Invitrogen Life Technologies) complexed with the antisense (0-1000 nmol/L), mismatch (500 nmol/L) or scrambled (560 nmol/L) oligonucleotides. […]
RNA was extracted from cultured and freshly isolated mouse VSMCs, and from freshly isolated whole aortas using RNAwiz (Ambion) according to the manufacturer's protocol. RNA concentrations were determined spectrophotometrically by measuring absorbance at 260 nm. […]
Real-time PCR and the ΔΔCt method were used as previously described to examine mRNA expression of Nox4 and Nox1 relative to a “reference” sample. […] 18S ribosomal RNA was used as the internal standard for each reaction and was detected with commercially available rodent 18S primers and a 5′-VIC-labeled probe (PE Biosystems; Table 7).
Nox4 was amplified in duplex with 18S in PCR mixtures (25 μL final volume) containing 1× TaqMan (registered trademark). […] Reactions were performed and fluorescence monitored in the ABI Prism 7700 Sequence Detector (PE Biosystems).

[1] = target: endothelial nitric oxide synthase (Homo sapiens, UniProt P29474); details: read-out: IC50, inhibition of endothelial nitric oxide synthase; Stuehr et al. 1991; Wang et al. 1993; cited from earlier work
Chain of endothelial nitric oxide synthase (P29474 2-1203): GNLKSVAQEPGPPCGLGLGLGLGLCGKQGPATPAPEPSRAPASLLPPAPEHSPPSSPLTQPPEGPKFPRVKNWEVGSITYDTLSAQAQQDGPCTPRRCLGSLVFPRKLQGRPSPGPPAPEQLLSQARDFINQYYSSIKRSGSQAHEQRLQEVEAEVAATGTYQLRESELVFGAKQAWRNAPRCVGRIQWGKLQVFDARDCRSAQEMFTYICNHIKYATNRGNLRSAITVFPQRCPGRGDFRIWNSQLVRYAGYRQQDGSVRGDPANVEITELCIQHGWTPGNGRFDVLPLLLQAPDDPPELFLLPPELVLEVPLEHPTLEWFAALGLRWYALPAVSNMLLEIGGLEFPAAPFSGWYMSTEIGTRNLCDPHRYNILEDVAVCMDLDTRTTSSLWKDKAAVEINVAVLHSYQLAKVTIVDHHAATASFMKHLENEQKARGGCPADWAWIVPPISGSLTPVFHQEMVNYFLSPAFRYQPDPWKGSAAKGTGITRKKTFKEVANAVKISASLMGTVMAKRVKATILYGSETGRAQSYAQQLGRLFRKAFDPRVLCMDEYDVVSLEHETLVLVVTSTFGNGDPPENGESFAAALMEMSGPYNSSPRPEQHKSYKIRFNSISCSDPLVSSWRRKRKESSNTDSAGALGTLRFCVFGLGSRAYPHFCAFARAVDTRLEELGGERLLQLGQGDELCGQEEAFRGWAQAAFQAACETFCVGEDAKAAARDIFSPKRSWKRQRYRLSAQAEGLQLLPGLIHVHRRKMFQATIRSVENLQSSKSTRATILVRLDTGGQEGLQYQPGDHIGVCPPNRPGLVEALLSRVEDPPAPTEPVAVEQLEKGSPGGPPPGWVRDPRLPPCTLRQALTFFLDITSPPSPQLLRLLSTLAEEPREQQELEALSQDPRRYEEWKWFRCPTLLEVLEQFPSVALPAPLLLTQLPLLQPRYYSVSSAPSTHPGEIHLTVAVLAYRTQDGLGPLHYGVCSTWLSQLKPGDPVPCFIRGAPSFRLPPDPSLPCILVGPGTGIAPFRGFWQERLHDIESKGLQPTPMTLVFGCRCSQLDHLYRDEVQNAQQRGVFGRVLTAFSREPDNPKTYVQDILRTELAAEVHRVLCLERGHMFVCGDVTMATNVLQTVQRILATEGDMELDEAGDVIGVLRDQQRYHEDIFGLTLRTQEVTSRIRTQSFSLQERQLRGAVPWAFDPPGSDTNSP

[2] = target: T1, gp91phox-containing NADPH-oxidase in the mouse macrophage cell line J774 (Mus musculus, UniProt Q61093); test: NADPH oxidase activity in intact J774 mouse macrophages; assay type: cell-based; details: FIG. 2b
T1 construct: endogenous in cells; host or cells: J774 mouse macrophage cell line (intact cells)
T1 sequence (Q61093 2-570 limits assumed): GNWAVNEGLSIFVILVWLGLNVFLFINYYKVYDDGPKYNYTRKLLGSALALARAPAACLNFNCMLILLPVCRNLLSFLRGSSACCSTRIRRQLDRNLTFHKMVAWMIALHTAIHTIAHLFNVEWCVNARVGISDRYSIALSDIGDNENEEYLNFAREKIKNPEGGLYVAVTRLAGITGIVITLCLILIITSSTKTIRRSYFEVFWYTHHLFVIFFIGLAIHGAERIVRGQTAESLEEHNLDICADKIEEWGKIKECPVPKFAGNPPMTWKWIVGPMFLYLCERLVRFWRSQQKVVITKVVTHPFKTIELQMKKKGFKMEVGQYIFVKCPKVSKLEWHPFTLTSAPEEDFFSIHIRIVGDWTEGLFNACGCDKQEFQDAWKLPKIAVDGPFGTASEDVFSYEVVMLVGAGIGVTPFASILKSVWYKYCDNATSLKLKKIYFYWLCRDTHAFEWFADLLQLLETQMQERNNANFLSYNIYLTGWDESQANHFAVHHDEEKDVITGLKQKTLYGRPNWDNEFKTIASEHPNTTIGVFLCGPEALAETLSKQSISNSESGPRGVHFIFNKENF
T1 sequence (Q61462 1-192 partner): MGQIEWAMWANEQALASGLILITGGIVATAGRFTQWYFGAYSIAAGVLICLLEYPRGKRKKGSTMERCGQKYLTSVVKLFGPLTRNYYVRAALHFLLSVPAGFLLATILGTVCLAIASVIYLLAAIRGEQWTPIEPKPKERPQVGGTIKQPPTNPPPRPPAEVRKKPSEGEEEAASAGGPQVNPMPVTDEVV

Compound | reduction in Nox4 mRNA expression (Nox4 mRNA) | further results
+13/+33 mismatch: mismatch control oligonucleotide TAGGCCAGCAAGCTCCTACA [SEQ ID NO:18], differs in three base positions (chemistry not given here) | no effect | –
c1ccc2c(c1)[I+]c1ccccc1-2 [DPI, diphenyleneiodonium] | – | IC50 [1]: 180 to 300 nM
+13/+33 scrambled: scrambled control oligonucleotide CGTCACGCTCAGCTCACCGT [SEQ ID NO:19], same base composition in random order (chemistry not given here) | no effect | –
1-amino-4[[4[[4-chloro-6-[[n-sulfophenyl]amino]-1,3,5-triazin-2-yl]amino]-3-sulfophenyl]amino]-9,10-dihydro-9,10-dioxo-2-anthracene-sulfonic acid wherein n is 3 or 4 [Reactive blue-2] | – | effect on gp91phox-containing NADPH-oxidase in J774 macrophages / phagocytic cells [2]: ineffective
